In test [1] the target is T1, N-terminal SH-PTP2 SH2 domain (Homo sapiens, UniProt Q06124).
T1 sequence (Q06124 6-102 limits assumed): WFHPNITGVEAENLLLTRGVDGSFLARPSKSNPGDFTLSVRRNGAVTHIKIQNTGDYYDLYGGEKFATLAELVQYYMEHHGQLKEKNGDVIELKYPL
As to conditions: X = pTyr or L-F2Pmp; previously reported (Xiao 1994); cited from earlier work.

Test [2] relates to SH-PTP2 mediated mitogenic signaling in rat 1 fibroblasts. The note with it: Xiao 1994; cited from earlier work.
In test [3] the target is T2, recombinant PTP 1B (Homo sapiens, UniProt P18031).
T2 sequence (P18031 1-435): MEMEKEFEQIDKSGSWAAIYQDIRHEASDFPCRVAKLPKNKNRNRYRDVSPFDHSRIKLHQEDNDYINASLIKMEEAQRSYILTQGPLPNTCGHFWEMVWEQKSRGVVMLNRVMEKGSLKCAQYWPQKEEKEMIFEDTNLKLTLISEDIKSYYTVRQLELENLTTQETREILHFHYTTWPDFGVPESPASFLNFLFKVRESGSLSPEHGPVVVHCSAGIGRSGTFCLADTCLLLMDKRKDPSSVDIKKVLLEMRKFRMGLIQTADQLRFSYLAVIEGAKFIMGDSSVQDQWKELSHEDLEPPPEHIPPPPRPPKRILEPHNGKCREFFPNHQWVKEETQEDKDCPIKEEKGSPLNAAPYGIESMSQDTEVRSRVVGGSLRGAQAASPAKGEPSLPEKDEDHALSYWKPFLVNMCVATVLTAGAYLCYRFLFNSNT
In words: Insulin receptor dephosphorylation by recombinant PTP 1B. As to conditions: 32P-labeled autophosphorylated insulin receptor as substrate; read-out: inhibition constant / IC50 against PTP 1B dephosphorylation of insulin receptor. It counts as biochemical. As for the experimental part: WGA-purified human insulin receptors were autophosphorylated with [γ-^32 P]ATP as previously described (Liotta, A.S., et al., J. Biol. Chem. 269:22996-23001 (1994)), and this ^32 P-labeled insulin receptor was used as substrate for the assay of PTP 1B activity, essentially following the method described by Burke et al. (Burke, T. R. Jr., Biochem, Biophys. Res. Commun. 204:129-134 (1994)). In brief, ^32 P-labeled autophosphorylated insulin receptors (10 μg/ml) were incubated with 0.5 μg/ml recombinant PTP 1B at 22° C. in a 100 μl reaction containing 50 mM HEPES, pH 7.5, 0.1 mg/ml BSA, 5 mM DTT, 5 mM EDTA, 0.05% Triton X-100, in the absence or presence of various peptides at the indicated concentrations. […] The ^32 P remaining in the 95 kDa insulin receptor β-subunit was quantified by Betagen counting of the fixed and dried gels.
The peptide Ac-D-A-D-E-OMT-L-amide (SEQ. ID. NO. 8) was then examined for inhibitor potency against PTB-1B dephosphorylation of phosphorylated insulin receptor. […] The ^32 P remaining in the 95 kDa insulin receptor β-subunit was quantified by Betagen counting of the fixed and dried gels. […]

Test [4] has as its target C-terminal SH2 domain of PI 3-kinase p85 (Homo sapiens, UniProt P27986). In words: SH2 domain competition binding assay, PI 3-kinase p85 C-terminal SH2. As to conditions: X = L-OMT; GST/SH2 fusion vs [125I] IRS-1 pY628 phosphopeptide; read-out: IC50 ± S.E., p85 (C-terminal) SH2 domain. On the procedure:
(§1) Details of the […] domain competition assay are described by Piccione, E., et al., Biochemistry 32:3197-3202 (1993). Briefly, four distinct assays were used to determine relative SH2 domain affinities for pTyr analogues vs. high affinity phosphopeptide ligands. In each assay a glutathione S-transferase (GST)/SH2 domain fusion protein was paired with an appropriate high-affinity [^125 I]Bolton-Hunter radiolabeled phosphopeptide, and varying concentrations of unlabeled peptides were added as competitors. The C-terminal SH2 domain of PI 3-kinase p85 was paired with IRS-1pY628, GNGDpYMPMSPK (SEQ ID NO. 5) (See Piccione, E., et al., Biochemistry 32:3197-3202 (1993)), the Src SH2 domain was paired with hmt pY324, KEPQpYEEIPIYL (SEQ ID NO. 6) (See Payne, G., et al., Proc. Natl. Acad. Sci. USA 90:4902-4906 (1993), the PLCγ-C SH2 domain was paired with PDGF pY1021, DNDpYIIPLPDPK (SEQ ID NO. 7) (See Piccione, E., et al., Biochemistry 32:3197-3202 (1993)), and the Lck SH2 domain was paired with the hmTpY324 sequence similar to assays conducted on the Src SH2 domain. An underline denotes the position of the [^125 I]Bolton-Hunter modified lysine. […] Following centrifugation for 5 min at 12,000 g, supematant solutions were removed by aspiration and [^125 I]radioactivity associated with the unwashed pellets was determined with a γ-counter.

In test [5] the target is T3, Src SH2 domain (Homo sapiens, UniProt P12931).
T3 construct: the Src SH2 domain was paired with hmt pY324
In words: SH2 domain competition binding assay, Src SH2. The note with it: X = L-OMT; GST/SH2 fusion vs [125I] hmT pY324 phosphopeptide; read-out: IC50 ± S.E., Src SH2 domain. On the procedure: as §1

The target in test [6] is T4, Grb2 SH2 domain (Homo sapiens, UniProt P62993).
T4 construct: against the Grb2 SH2 domain construct
In words: SH2 domain competition binding assay, Grb2 SH2.

For test [7], the target named is T1, N-terminal SH-PTP2 SH2 domain. In words: SH2 domain competition binding assay, SH-PTP2 N-terminal SH2. The note with it: X = L-OMT; read-out: IC50 ± S.E., SH-PTP2 (N-terminal) SH2 domain.

The text below walks through data of patent US5688992A, “O-malonyltryrosyl compounds, O-malonyltryrosyl compound-containing peptides, and use thereof” (The United States of America as represented by the …, priority 1995, dated 1997).

Like-named read-outs stand apart in the source and are kept apart here. Square brackets hold non-standard residues; d marks the D form. Peptide text beside a SMILES is read from it. * marks the point of attachment. F2Pmp = N[C@@H](Cc1ccc(C(F)(F)P(=O)(O)O)cc1)C(=O)O; pY = N[C@@H](Cc1ccc(OP(=O)(O)O)cc1)C(=O)O; L‑OMT = L-O-malonyltyrosine; X1 = O=C(O)C(C(=O)O)* Bounds are passed on as bounds.

For “10 (X = L-F2Pmp): Ac-L-N-X-I-D-L-D-L-V-amide with X = L-F2Pmp in place of L-OMT (Ac-LN[F2Pmp]IDLDLV-NH2; SMILES CC[C@H](C)[C@H](NC(=O)[C@H](Cc1ccc(C(F)(F)P(=O)(O)O)cc1)NC(=O)[C@H](CC(N)=O)NC(=O)[C@H](CC(C)C)NC(C)=O)C(=O)N[C@@H](CC(=O)O)C(=O)N[C@@H](CC(C)C)C(=O)N[C@@H](CC(=O)O)C(=O)N[C@@H](CC(C)C)C(=O)N[C@H](C(N)=O)C(C)C)”, in test [1], the IC50 was 23 µM. Further, the “effect on SH-PTP2 mediated mitogenic signaling” value in test [2] is “block SH-PTP2 mediated mitogenic signaling”.
In the case of “10 (X = pTyr): Ac-L-N-X-I-D-L-D-L-V-amide with X = pTyr in place of L-OMT (Ac-LN[pY]IDLDLV-NH2; SMILES CC[C@H](C)[C@H](NC(=O)[C@H](Cc1ccc(OP(=O)(O)O)cc1)NC(=O)[C@H](CC(N)=O)NC(=O)[C@H](CC(C)C)NC(C)=O)C(=O)N[C@@H](CC(=O)O)C(=O)N[C@@H](CC(C)C)C(=O)N[C@@H](CC(=O)O)C(=O)N[C@@H](CC(C)C)C(=O)N[C@H](C(N)=O)C(C)C)”, the IC50 in test [1] was 4 µM.
For the compound `CC(=O)N[C@@H](CC(=O)O)C(=O)N[C@@H](C)C(=O)N[C@@H](CC(=O)O)C(=O)N[C@@H](CCC(=O)O)C(=O)N[C@@H](Cc1ccc(OC(C(=O)O)C(=O)O)cc1)C(=O)N[C@@H](CC(C)C)C(N)=O` [Ac-D-A-D-E-OMT-L-amide, Ac-Asp-Ala-Asp-Glu-[L-OMT]-Leu-amide] (Ac-DADEY(X1)L-NH2), the IC50 in test [3] was approximately 10 µM.
In the case of `CSCC[C@H](NC(=O)[C@@H]1CCCN1C(=O)[C@@H](NC(=O)[C@H](Cc1ccc(OC(C(=O)O)C(=O)O)cc1)NC(=O)[C@H](CC(=O)O)NC(C)=O)C(C)C)C(=O)N[C@@H](CC(C)C)C(N)=O` [peptide no. 6, Ac-Asp-[L-OMT]-Val-Pro-Met-Leu-amide] (Ac-DY(X1)VPML-NH2), the IC50 in test [4] came out at 14.2 µM.
Turning to `CC[C@H](C)[C@H](NC(=O)[C@H](CCC(=O)O)NC(=O)[C@H](CCC(=O)O)NC(=O)[C@H](Cc1ccc(OC(C(=O)O)C(=O)O)cc1)NC(=O)[C@H](CCC(N)=O)NC(C)=O)C(=O)N1CCC[C@H]1C(N)=O` [peptide no. 7, Ac-Gln-[L-OMT]-Glu-Glu-Ile-Pro-amide] (Ac-QY(X1)EEIP-NH2), in test [5], the IC50 was more than 200 µM.
Take `CC[C@H](C)[C@H](NC(=O)[C@H](CC(N)=O)NC(=O)[C@@H](NC(=O)[C@H](Cc1ccc(OC(C(=O)O)C(=O)O)cc1)NC(=O)[C@H](CC(N)=O)NC(C)=O)C(C)C)C(=O)N[C@@H](CCC(=O)O)C(N)=O` [peptide no. 8, Ac-Asn-[L-OMT]-Val-Asn-Ile-Glu-amide] (Ac-NY(X1)VNIE-NH2): the “activity in Grb2 binding assay” value in test [6] was “essentially inactive”.
For the compound “Ac-Leu-Asn-[L-OMT]-Ile-Asp-Leu-Asp-Leu-Val-amide ({Ac-Leu-Asn-L‑OMT}-IDLDLV-NH2) [peptide no. 9]”, in test [7], the IC50 was 22 µM.
